Measured values taken from patent US10913727B2, “Modulators of the integrated stress pathway” (Calico Life Sciences LLC, priority 2016, dated 2021).

These compounds were tested on HEK293T cells carrying the ATF4 luciferase reporter (assay: ATF4-Luc assay, in vitro model of Vanishing Cell White Matter Disease (VWMD)). Settings: Homo sapiens, HEK-293T, 1 μg/mL tunicamycin, 7 hours, One Glo luminescence.
Format: cell-based
Summary of the method: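 Compound at 200 nM and tunicamycin at 1 μg/mL were given together for 7 h to HEK293T cells stably transduced with an ATF4 5′-UTR-driven firefly luciferase reporter. Read-out by luminescence, reported as EC50.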

SMILES	EC50 [nM]
COc1ccccc1-c1cc(C(=O)NC23CCC(NC(=O)COc4ccc(Cl)c(F)c4)(CC2)C(O)C3)on1 (stereo not drawn) [Compound 397, N-{4-[2-(4-chloro-3-fluorophenoxy)acetamido]-3-hydroxybicyclo[2.2.2]octan-1-yl}-3-(2-methoxyphenyl)-1,2-oxazole-5-carboxamide]	50 to 250
Cc1cc(C(=O)NC23CCC(NC(=O)COc4ccc(Cl)c(F)c4)(CC2)C[C@@H]3O)n(C)n1 [Compound 506, N-{(2S)-4-[2-(4-chloro-3-fluorophenoxy)acetamido]-2-hydroxybicyclo[2.2.2]octan-1-yl}-1,3-dimethyl-1H-pyrazole-5-carboxamide]	50 to 250
CC(C)(C)c1nc(C(=O)NC23CCC(NC(=O)COc4ccc(Cl)c(F)c4)(CC2)C(O)C3)co1 (stereo not drawn) [Compound 629, 2-tert-butyl-N-{4-[2-(4-chloro-3-fluorophenoxy)acetamido]-3-hydroxybicyclo[2.2.2]octan-1-yl}-1,3-oxazole-4-carboxamide]	250 to 1000
O=C(COc1ccc(Cl)c(F)c1)NC12CC(NC(=O)c3cnsn3)(C1)C2 [Compound 895, N-{3-[2-(4-chloro-3-fluorophenoxy)acetamido]bicyclo[1.1.1]pentan-1-yl}-1,2,5-thiadiazole-3-carboxamide]	250 to 1000
CCc1ccc(C(=O)NC23CC(NC(=O)COc4ccc(Cl)c(F)c4)(C2)C3)nc1 [Compound 145, N-{3-[2-(4-chloro-3-fluorophenoxy)acetamido]bicyclo[1.1.1]pentan-1-yl}-5-ethylpyridine-2-carboxamide]	50 to 250
Cc1cc2ncc(C(=O)NC34CC(NC(=O)COc5ccc(Cl)c(F)c5)(C3)C4)cn2n1 [Compound 748, N-{3-[2-(4-chloro-3-fluorophenoxy)acetamido]bicyclo[1.1.1]pentan-1-yl}-2-methylpyrazolo[1,5-a]pyrimidine-6-carboxamide]	250 to 1000
N#CCCc1ccc(C(=O)NC23CCC(NC(=O)COc4ccc(Cl)c(F)c4)(C2)C3)nc1 [Compound 336, N-{4-[2-(4-chloro-3-fluorophenoxy)acetamido]bicyclo[2.1.1]hexan-1-yl}-5-(2-cyanoethyl)pyridine-2-carboxamide]	> 2000
O=C(COc1ccc(Cl)c(F)c1)NC12CCC(NC(=O)c3cc(C4CCCCC4)no3)(CC1)CC2O (stereo not drawn) [Compound 408, N-{4-[2-(4-chloro-3-fluorophenoxy)acetamido]-3-hydroxybicyclo[2.2.2]octan-1-yl}-3-cyclohexyl-1,2-oxazole-5-carboxamide]	> 2000
Cc1cc(C(=O)NC23CCC(NC(=O)COc4ccc5c(c4)OC(F)(F)O5)(CC2)[C@@H](O)C3)on1 [Compound 636, N-[(3S)-4-{2-[(2,2-difluoro-2H-1,3-benzodioxol-5-yl)oxy]acetamido}-3-hydroxybicyclo[2.2.2]octan-1-yl]-3-methyl-1,2-oxazole-5-carboxamide]	250 to 1000
O=C(COc1ccc(Cl)c(F)c1)NC12CC(NC(=O)c3ccc(F)cc3F)(C1)C2 [Compound 511, N-{3-[2-(4-chloro-3-fluorophenoxy)acetamido]bicyclo[1.1.1]pentan-1-yl}-2,4-difluorobenzamide]	250 to 1000
Cn1cc(-c2ccnc(NC34CC(NC(=O)COc5ccc(Cl)c(F)c5)(C3)C4)n2)cn1 [Compound 381, 2-(4-chloro-3-fluorophenoxy)-N-(3-{[4-(1-methyl-1H-pyrazol-4-yl)pyrimidin-2-yl]amino}bicyclo[1.1.1]pentan-1-yl)acetamide]	1000 to 2000
Cc1nc(C(=O)NC23CC(NC(=O)COc4ccc(Cl)c(F)c4)(C2)C3)sc1C [Compound 470, N-{3-[2-(4-chloro-3-fluorophenoxy)acetamido]bicyclo[1.1.1]pentan-1-yl}-4,5-dimethyl-1,3-thiazole-2-carboxamide]	50 to 250
Cc1cnc(C(=O)NC23CC(NC(=O)COc4ccc(Cl)c(F)c4)(C2)C3)s1 [Compound 469, N-{3-[2-(4-chloro-3-fluorophenoxy)acetamido]bicyclo[1.1.1]pentan-1-yl}-5-methyl-1,3-thiazole-2-carboxamide]	250 to 1000
COc1cncc(NC23CC(NC(=O)COc4ccc(Cl)c(F)c4)(C2)C3)n1 [Compound 756, 2-(4-chloro-3-fluorophenoxy)-N-{3-[(6-methoxypyrazin-2-yl)amino]bicyclo[1.1.1]pentan-1-yl}acetamide]	250 to 1000
O=C(COc1ccc(C(F)(F)F)nc1)NC12CC(NC(=O)c3cnc(C(F)F)cn3)(C1)C2 [Compound 455, 5-(difluoromethyl)-N-[3-(2-{[6-(trifluoromethyl)pyridin-3-yl]oxy}acetamido)bicyclo[1.1.1]pentan-1-yl]pyrazine-2-carboxamide]	> 2000
O=C(COc1ccc(Cl)c(F)c1)NC12CCC(NC(=O)c3cscn3)(CC1)CC2O (stereo not drawn) [Compound 592, N-{4-[2-(4-chloro-3-fluorophenoxy)acetamido]-3-hydroxybicyclo[2.2.2]octan-1-yl}-1,3-thiazole-4-carboxamide]	50 to 250
O=C(COc1ccc(Cl)c(F)c1)NC12CC(NC(=O)c3cc4n(n3)CCCN4)(C1)C2 [Compound 125, N-{3-[2-(4-chloro-3-fluorophenoxy)acetamido]bicyclo[1.1.1]pentan-1-yl}-4,5,6,7-tetrahydropyrazolo[1,5-a]pyrimidine-2-carboxamide]	> 2000

SMILES	EC50 [nM]
COc1cccc(C(=O)NC23CC(NC(=O)COc4ccc(Cl)c(F)c4)(C2)C3)c1F [Compound 519, N-{3-[2-(4-chloro-3-fluorophenoxy)acetamido]bicyclo[1.1.1]pentan-1-yl}-2-fluoro-3-methoxybenzamide]	50 to 250
Cn1nc(-c2ccccc2)cc1C(=O)NC12CC(NC(=O)COc3ccc(Cl)c(F)c3)(C1)C2 [Compound 340, N-{3-[2-(4-chloro-3-fluorophenoxy)acetamido]bicyclo[1.1.1]pentan-1-yl}-1-methyl-3-phenyl-1H-pyrazole-5-carboxamide]	< 50
CS(=O)(=O)c1ccccc1C(=O)NC12CC(NC(=O)COc3ccc(Cl)c(F)c3)(C1)C2 [Compound 827, N-{3-[2-(4-chloro-3-fluorophenoxy)acetamido]bicyclo[1.1.1]pentan-1-yl}-2-(methanesulfonyl)benzamide]	> 2000
Cn1nc2ccccc2c1C(=O)NC12CC(NC(=O)COc3ccc(Cl)c(F)c3)(C1)C2 [Compound 896, N-{3-[2-(4-chloro-3-fluorophenoxy)acetamido]bicyclo[1.1.1]pentan-1-yl}-2-methyl-2H-indazole-3-carboxamide]	1000 to 2000
COCc1nc(C(=O)NC23CC(NC(=O)COc4ccc(Cl)c(F)c4)(C2)C3)cs1 [Compound 926, N-{3-[2-(4-chloro-3-fluorophenoxy)acetamido]bicyclo[1.1.1]pentan-1-yl}-2-(methoxymethyl)-1,3-thiazole-4-carboxamide]	50 to 250
O=C(COc1ccc(Cl)c(F)c1)NC12CC(NC(=O)c3ccncn3)(C1)C2 [Compound 187, N-{3-[2-(4-chloro-3-fluorophenoxy)acetamido]bicyclo[1.1.1]pentan-1-yl}pyrimidine-4-carboxamide]	1000 to 2000
O=C(COc1ccc(Cl)c(F)c1)NC12CC(NC(=O)c3ccc(C(F)F)cc3)(C1)C2 [Compound 191, N-{3-[2-(4-chloro-3-fluorophenoxy)acetamido]bicyclo[1.1.1]pentan-1-yl}-4-(difluoromethyl)benzamide]	50 to 250
Cc1ncc(-c2ncc(C(=O)NC34CC(NC(=O)COc5ccc(Cl)c(F)c5)(C3)C4)o2)cn1 [Compound 109, N-{3-[2-(4-chloro-3-fluorophenoxy)acetamido]bicyclo[1.1.1]pentan-1-yl}-2-(2-methylpyrimidin-5-yl)-1,3-oxazole-5-carboxamide]	250 to 1000
Cc1cnc2c(C(=O)NC34CC(NC(=O)COc5ccc(Cl)c(F)c5)(C3)C4)cnn2c1 [Compound 806, N-{3-[2-(4-chloro-3-fluorophenoxy)acetamido]bicyclo[1.1.1]pentan-1-yl}-6-methylpyrazolo[1,5-a]pyrimidine-3-carboxamide]	> 2000
O=C(COc1ccc(Cl)c(F)c1)NC12CCC(NC(=O)c3cccnn3)(CC1)C(O)C2 (stereo not drawn) [Compound 227, N-{4-[2-(4-chloro-3-fluorophenoxy)acetamido]-2-hydroxybicyclo[2.2.2]octan-1-yl}pyridazine-3-carboxamide]	250 to 1000
O=C(COc1ccc(Cl)c(F)c1)NC12CC(NC(=O)c3cc(/C=C/CO)ccn3)(C1)C2 [Compound 200, N-{3-[2-(4-chloro-3-fluorophenoxy)acetamido]bicyclo[1.1.1]pentan-1-yl}-4-[(1E)-3-hydroxyprop-1-en-1-yl]pyridine-2-carboxamide]	50 to 250
O=C(COc1ccc(Cl)c(F)c1)NC12CC(NC(=O)c3ccc(Cl)cn3)(C1)C2 [Compound 686, 5-chloro-N-{3-[2-(4-chloro-3-fluorophenoxy)acetamido]bicyclo[1.1.1]pentan-1-yl}pyridine-2-carboxamide]	< 50
Cc1cc(C(=O)NC23CCC(NC(=O)COc4ccc(Cl)c(F)c4)(CC2)C(O)C3)n(C)n1 (stereo not drawn) [Compound 447, N-{4-[2-(4-chloro-3-fluorophenoxy)acetamido]-3-hydroxybicyclo[2.2.2]octan-1-yl}-1,3-dimethyl-1H-pyrazole-5-carboxamide]	50 to 250
O=C(COc1ccc(Cl)c(F)c1)NC12CCC(NC(=O)c3cnc(C(F)F)cn3)(CC1)C(O)C2 (stereo not drawn) [Compound 195, N-{4-[2-(4-chloro-3-fluorophenoxy)acetamido]-2-hydroxybicyclo[2.2.2]octan-1-yl}-5-(difluoromethyl)pyrazine-2-carboxamide]	< 50
CCSc1cncc(C(=O)NC23CC(NC(=O)COc4ccc(Cl)c(F)c4)(C2)C3)n1 [Compound 898, N-{3-[2-(4-chloro-3-fluorophenoxy)acetamido]bicyclo[1.1.1]pentan-1-yl}-6-(ethylsulfanyl)pyrazine-2-carboxamide]	50 to 250
O=C(COc1ccc(Cl)c(F)c1)NC12CC(NC(=O)c3cccc4c3OCO4)(C1)C2 [Compound 240, N-{3-[2-(4-chloro-3-fluorophenoxy)acetamido]bicyclo[1.1.1]pentan-1-yl}-2H-1,3-benzodioxole-4-carboxamide]	1000 to 2000
